# In ChEMBL document CHEMBL1201862, “PubChem BioAssay data set” (2004):
# Calls of active or inactive are those of the source.
# What was measured:
# [1] = target: T1, Replicative DNA helicase DnaB (Mycobacterium tuberculosis, UniProt P9WMR3); assay: DnaB intein splicing inhibitors, dose response, biochemical, cell-free fluorescence (AID 449749); format: functional
# T1 sequence (P9WMR3 whole entry): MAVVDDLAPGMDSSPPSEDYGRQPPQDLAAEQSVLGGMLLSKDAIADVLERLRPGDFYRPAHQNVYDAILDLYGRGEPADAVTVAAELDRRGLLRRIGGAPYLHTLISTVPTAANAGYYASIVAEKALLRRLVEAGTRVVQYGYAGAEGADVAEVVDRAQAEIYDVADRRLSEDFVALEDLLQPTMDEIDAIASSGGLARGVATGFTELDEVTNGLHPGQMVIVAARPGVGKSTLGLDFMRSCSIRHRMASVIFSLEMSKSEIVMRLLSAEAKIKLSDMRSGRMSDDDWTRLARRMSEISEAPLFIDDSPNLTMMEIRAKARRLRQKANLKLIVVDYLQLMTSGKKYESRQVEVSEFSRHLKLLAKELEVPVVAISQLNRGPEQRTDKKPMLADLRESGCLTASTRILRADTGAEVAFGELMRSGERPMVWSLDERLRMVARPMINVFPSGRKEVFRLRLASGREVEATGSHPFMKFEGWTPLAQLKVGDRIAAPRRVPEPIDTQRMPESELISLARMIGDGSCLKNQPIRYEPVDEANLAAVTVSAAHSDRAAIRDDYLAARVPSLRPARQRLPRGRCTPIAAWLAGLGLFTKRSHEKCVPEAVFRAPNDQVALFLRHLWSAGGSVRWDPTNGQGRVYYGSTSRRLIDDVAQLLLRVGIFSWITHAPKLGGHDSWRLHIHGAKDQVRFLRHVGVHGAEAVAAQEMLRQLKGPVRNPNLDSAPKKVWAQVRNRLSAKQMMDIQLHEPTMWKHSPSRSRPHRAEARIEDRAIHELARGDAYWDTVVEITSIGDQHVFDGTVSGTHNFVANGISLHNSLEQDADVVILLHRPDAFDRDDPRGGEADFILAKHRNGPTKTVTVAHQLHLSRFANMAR
# Protein RecA = target: T2, Protein RecA (Mycobacterium tuberculosis, UniProt P9WHJ3); assay: Fluorescence Cell-Free Homogeneous Dose Retest to Identify Inhibitors of RecA-Intein Splicing Activity. [Related pubchem assays (depositor defined):AID2097, AID2223, AID489010, AID492950]; format: functional
# T2 sequence (P9WHJ3 whole entry): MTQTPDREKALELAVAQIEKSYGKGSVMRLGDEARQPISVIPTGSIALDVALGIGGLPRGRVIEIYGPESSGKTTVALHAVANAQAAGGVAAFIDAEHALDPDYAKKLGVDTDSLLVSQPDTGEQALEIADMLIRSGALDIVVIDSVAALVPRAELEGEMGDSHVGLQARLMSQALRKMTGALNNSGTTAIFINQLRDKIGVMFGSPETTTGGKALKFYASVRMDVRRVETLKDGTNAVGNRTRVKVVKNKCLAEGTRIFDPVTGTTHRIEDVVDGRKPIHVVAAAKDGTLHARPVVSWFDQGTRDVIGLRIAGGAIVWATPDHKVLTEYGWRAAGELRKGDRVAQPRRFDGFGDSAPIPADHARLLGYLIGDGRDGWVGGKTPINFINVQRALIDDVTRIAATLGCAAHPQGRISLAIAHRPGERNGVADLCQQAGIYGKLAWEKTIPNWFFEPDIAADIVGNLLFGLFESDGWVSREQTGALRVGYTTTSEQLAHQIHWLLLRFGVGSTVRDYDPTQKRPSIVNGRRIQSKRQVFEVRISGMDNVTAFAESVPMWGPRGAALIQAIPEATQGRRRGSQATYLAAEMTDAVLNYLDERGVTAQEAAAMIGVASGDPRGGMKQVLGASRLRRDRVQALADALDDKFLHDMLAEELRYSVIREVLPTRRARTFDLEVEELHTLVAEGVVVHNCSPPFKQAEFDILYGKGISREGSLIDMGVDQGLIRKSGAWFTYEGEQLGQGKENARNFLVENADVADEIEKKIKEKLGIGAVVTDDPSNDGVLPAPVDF
# Cytochrome P450 2D6 = Cytochrome P450 2D6 (Homo sapiens, UniProt P10635);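 note: CYP2D6 member of a cytochrome P450 panel assay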
# Cytochrome P450 3A4 = Cytochrome P450 3A4 (Homo sapiens, UniProt P08684);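 note: CYP3A4 tested as one member of a cytochrome P450 panel screen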
# INS1 = assay: INS-1E survival protection against cytokine death – cell-based, luminescence, retest, dose response (AID 449756); format: functional; details: Rattus norvegicus;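 note: cell death triggered by IL-1 beta plus TNF-alpha plus IFN-gamma mixture; protective hits raise ATP signal compared with cytokine alone wells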
# [2] = target: T3, RNA-binding protein pos-1 (Caenorhabditis elegans, UniProt G5EF15); assay: disruptors of C. elegans POS-1 RNA interaction – biochemical, fluorescence polarization, dose response (AID 1964);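 note: purified POS-1 fused to maltose binding protein made in E. coli; potency of compounds blocking POS-1 binding to fluorescent RNA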
# T3 sequence (G5EF15 whole entry): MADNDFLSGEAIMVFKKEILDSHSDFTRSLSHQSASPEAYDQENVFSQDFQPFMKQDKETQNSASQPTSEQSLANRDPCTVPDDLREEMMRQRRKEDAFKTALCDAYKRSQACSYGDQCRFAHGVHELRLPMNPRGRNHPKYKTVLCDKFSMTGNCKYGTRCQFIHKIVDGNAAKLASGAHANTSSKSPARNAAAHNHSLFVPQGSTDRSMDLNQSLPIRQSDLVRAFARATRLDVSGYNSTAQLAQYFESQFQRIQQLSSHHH
# [3] = target: T4, Zinc finger protein mex-5 (Caenorhabditis elegans, UniProt Q9XUB2); assay: potency of MEX-5 RNA-binding blockers – biochemical, C. elegans, fluorescence polarization, dose response (AID 1960)
# T4 sequence (Q9XUB2 whole entry): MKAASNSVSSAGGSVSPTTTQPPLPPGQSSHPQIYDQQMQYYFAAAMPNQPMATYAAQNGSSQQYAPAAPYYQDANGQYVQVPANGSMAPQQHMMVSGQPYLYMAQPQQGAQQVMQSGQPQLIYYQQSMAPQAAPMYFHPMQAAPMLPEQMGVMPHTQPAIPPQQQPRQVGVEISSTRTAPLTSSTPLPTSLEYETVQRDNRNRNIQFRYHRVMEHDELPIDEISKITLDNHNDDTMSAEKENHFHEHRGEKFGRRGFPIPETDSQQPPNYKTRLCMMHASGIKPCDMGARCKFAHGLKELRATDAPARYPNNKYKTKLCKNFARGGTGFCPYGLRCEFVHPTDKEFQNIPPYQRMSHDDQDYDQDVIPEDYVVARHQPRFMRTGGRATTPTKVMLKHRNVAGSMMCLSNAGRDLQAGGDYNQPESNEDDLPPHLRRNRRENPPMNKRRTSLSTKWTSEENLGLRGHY
# [4] = NIH-3T3 fibroblast cytotoxicity, dose response, cytotoxicity control, cell-based, fluorescence, Alamar Blue, secondary assay (AID 2327); format: functional;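 note: NIH-3T3 mouse fibroblasts cultured with fluconazole at 8 µg/mL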
# [5] = target: FAD-linked sulfhydryl oxidase ALR (Homo sapiens, UniProt P55789); assay: ALR-catalysed DTT oxidation blockers – biochemical, H2O2 detection, luminescence, cherry-pick, dose response (AID 493248)
# Genome polyprotein = Genome polyprotein (dengue virus type 2, UniProt P29990); assay: flavivirus cap methylation enzyme inhibition – biochemical, confirmation dose response, primary screen (AID 588689); format: functional
# Cytochrome P450 2C9 = Cytochrome P450 2C9 (Homo sapiens, UniProt P11712)
# [6] = fluconazole-exposed Candida albicans growth modulators – fluorescence, retest, confirmation (AID 2467); format: functional, cell-based
# Cytochrome P450 2C19 = Cytochrome P450 2C19 (Homo sapiens, UniProt P33261); assay: Cytochrome panel assay with activity outcomes. Panel member name: p450-cyp2c19 Compounds with AC50 equal or less than 10 uM are considered active; format: functional; details: read-out: AC50
# [7] = viability of uninfected HEp-2 cells – cell-based, HTS, cytotoxicity control for RSV inhibitor project, dose response (AID 2410); format: functional; details: human respiratory syncytial virus
# Cytochrome P450 1A2 = target: T5, Cytochrome P450 1A2 (Homo sapiens, UniProt P05177);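 note: PubChem cytochrome P450 panel assay, CYP1A2 panel member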
# T5 sequence (P05177 whole entry): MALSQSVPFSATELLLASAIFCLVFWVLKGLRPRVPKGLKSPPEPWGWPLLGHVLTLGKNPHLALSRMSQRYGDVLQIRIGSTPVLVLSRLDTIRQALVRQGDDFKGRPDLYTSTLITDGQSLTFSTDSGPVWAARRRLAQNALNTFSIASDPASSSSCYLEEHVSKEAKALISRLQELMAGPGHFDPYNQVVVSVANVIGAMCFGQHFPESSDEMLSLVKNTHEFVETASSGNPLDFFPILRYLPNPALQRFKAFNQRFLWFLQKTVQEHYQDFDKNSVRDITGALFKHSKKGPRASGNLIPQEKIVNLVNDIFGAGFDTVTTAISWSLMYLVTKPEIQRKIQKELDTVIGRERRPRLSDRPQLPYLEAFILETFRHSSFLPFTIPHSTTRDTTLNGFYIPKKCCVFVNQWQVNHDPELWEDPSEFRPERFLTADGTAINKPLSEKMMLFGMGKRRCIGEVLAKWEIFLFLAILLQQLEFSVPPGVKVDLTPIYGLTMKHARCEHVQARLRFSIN
# Cytochrome P450 2D6, sequence (P10635 whole entry): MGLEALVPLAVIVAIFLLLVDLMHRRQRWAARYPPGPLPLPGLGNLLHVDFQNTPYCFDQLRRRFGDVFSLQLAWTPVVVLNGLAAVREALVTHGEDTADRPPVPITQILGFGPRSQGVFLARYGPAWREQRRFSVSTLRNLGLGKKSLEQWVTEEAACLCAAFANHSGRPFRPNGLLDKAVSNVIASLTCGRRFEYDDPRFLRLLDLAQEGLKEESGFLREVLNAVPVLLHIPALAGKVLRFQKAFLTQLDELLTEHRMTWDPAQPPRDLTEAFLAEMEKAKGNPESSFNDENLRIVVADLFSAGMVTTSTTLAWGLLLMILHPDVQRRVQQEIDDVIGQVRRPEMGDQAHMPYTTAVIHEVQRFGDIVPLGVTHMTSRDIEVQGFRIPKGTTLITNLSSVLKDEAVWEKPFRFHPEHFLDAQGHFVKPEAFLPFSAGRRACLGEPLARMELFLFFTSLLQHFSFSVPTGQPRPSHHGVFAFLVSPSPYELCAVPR
# Cytochrome P450 3A4, sequence (P08684 whole entry): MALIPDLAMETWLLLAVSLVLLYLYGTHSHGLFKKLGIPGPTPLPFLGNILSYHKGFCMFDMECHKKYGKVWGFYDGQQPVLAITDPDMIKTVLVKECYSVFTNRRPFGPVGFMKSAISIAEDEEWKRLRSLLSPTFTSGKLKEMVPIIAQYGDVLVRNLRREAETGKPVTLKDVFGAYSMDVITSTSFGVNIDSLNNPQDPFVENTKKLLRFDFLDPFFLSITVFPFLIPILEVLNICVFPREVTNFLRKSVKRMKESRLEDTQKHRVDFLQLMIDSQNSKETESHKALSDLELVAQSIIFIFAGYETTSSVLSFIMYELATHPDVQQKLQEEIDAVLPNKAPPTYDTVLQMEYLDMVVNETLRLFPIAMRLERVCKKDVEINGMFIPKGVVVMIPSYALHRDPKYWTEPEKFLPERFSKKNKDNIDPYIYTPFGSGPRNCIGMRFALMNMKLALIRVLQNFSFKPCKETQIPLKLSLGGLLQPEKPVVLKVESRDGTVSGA
# Genome polyprotein, sequence (P29990 2492-3391 limits assumed): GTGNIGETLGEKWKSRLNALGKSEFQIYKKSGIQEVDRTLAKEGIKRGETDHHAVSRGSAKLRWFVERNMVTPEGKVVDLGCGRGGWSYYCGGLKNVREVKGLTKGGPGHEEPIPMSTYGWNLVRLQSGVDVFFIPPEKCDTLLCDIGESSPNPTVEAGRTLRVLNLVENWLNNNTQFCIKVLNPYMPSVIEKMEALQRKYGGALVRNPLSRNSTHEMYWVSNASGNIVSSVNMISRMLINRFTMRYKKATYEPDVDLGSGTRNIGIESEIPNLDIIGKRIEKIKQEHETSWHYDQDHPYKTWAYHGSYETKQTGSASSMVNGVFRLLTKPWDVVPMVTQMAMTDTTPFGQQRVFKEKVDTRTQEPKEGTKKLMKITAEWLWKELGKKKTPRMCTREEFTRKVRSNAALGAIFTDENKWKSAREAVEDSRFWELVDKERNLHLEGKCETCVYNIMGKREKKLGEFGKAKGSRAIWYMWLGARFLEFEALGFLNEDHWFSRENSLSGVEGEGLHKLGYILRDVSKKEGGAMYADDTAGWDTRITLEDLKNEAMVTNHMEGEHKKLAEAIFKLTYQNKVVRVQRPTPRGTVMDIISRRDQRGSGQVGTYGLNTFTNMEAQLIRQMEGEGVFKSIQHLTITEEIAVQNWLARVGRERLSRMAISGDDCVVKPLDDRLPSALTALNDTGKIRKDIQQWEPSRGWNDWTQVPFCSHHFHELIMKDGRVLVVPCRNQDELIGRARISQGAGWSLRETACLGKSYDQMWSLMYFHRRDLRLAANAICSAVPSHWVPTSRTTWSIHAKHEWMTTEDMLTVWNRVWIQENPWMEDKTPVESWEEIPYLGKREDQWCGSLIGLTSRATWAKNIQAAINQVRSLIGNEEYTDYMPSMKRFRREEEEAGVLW
# Cytochrome P450 2C19, sequence (P33261 whole entry): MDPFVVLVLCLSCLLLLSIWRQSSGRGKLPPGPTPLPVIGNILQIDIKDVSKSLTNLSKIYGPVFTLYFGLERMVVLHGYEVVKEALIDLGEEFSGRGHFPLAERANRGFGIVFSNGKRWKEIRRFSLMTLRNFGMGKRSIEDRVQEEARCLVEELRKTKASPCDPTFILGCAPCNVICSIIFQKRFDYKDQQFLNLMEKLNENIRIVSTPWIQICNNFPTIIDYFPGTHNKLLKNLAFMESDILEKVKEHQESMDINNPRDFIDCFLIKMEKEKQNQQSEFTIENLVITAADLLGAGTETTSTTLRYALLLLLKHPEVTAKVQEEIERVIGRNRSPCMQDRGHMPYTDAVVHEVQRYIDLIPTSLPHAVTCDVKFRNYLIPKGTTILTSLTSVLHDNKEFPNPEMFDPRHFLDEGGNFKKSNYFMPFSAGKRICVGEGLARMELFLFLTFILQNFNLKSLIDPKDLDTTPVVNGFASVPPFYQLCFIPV
# FAD-linked sulfhydryl oxidase ALR, sequence (P55789 whole entry): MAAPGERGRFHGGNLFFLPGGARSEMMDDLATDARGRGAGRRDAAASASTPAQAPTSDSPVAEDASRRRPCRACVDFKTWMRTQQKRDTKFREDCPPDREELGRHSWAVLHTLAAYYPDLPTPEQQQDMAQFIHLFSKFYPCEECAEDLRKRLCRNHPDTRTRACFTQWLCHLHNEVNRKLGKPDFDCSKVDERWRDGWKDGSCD
# Cytochrome P450 2C9, sequence (P11712 whole entry): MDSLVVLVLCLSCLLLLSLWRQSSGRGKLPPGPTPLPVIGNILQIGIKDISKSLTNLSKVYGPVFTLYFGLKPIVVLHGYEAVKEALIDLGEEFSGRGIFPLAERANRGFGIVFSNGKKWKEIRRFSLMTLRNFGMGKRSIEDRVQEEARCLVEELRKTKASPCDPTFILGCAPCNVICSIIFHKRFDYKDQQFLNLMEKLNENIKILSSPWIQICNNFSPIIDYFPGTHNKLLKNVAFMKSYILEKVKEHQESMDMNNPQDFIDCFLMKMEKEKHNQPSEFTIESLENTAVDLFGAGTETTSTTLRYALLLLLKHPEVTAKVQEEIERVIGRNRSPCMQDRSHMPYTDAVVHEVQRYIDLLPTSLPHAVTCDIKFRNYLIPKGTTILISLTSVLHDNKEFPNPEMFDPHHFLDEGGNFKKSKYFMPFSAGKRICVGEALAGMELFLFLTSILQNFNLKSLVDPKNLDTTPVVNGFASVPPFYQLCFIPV
smiles,measurement,setting,value
COc1ccc(N2C(=O)CC(N(CCc3ccccc3)C(=O)/C=C/C(=O)O)C2=O)cc1 (stereo not given),AC50,[1],> 380 µM (inactive)
same,EC50,Protein RecA,> 380 µM (inactive)
O=C(NCc1ccccc1Cl)c1ccc2c(=O)n(CCCN3CCCC3=O)c(=S)[nH]c2c1,AC50,Cytochrome P450 2D6,22.4 µM (inconclusive)
same,AC50,Cytochrome P450 3A4,15.8 µM (inconclusive)
CCOC(=O)c1ccc(NC(=O)NCc2cccnc2)cc1,AC50,INS1,2.09 µM (active)
COc1ccc(-n2cc(CNCc3cnc4ccccn34)c(-c3cccc(F)c3)n2)cc1,EC50,[2],> 300 µM (not active)
same,EC50,[3],> 300 µM (inconclusive)
CC1(OC(=O)c2cccs2)C(=O)C=C2C=C3CCCN3C=C2C1=O (stereo not given),EC50,[2],> 300 µM (not active)
same,EC50,[3],35.4 µM (active)
COc1cc(C(c2c(C)[nH][nH]c2=O)c2c(C)[nH][nH]c2=O)cc([N+](=O)[O-])c1O,EC50,[2],7.63 µM (active)
same,EC50,[3],4.74 µM (active)
same,AC50,[1],0.42 µM (active)
same,EC50,Protein RecA,0.248 µM (active)
CCc1ccc(N(C(=O)c2ccoc2C)C(C(=O)NC2CCCC2)c2ccc(OC)cc2)cc1 (stereo not given),AC50,Cytochrome P450 2D6,15.8 µM (inconclusive)
same,AC50,Cytochrome P450 3A4,1.26 µM (inconclusive)
O=C(c1ccco1)N1CCC[C@@]2(CCN(c3ccccc3)C2)C1,AC50,Cytochrome P450 2D6,20 µM (inconclusive)
O=C1NN(c2ccc(Cl)c(Cl)c2)C(=O)/C1=C/c1ccc(-c2ccccc2C(=O)O)o1,EC50,[4],> 160 µM (inactive)
same,AC50,[5],0.26 µM (active)
same,IC50,Genome polyprotein,7.41 µM (active)
CN1CCN(c2nc(-c3ccccc3C(F)(F)F)nc3ccccc23)CC1,AC50,Cytochrome P450 2D6,39.8 µM (inconclusive)
same,AC50,Cytochrome P450 3A4,20 µM (inconclusive)
O=C(O)C1OC(Oc2cc3oc(-c4ccccc4)cc(=O)c3c(O)c2O)C(O)C(O)C1O (stereo not given),EC50,[2],27.2 µM (active)
same,EC50,[3],11.9 µM (active)
CN(Cc1ccccc1)C(=O)c1nc2ccccn2c1CN1CCCC1c1nccs1 (stereo not given),AC50,INS1,> 260 µM (inactive)
Cc1cc(C2C(C#N)=C(N)Oc3[nH]nc(C)c32)c(C)s1 (stereo not given),AC50,[1],10.9 µM (active)
same,EC50,Protein RecA,3.32 µM (active)
same,AC50,Cytochrome P450 3A4,7.08 µM (inconclusive)
same,AC50,Cytochrome P450 2C9,10 µM (inconclusive)
O=C(c1ccco1)N1CCN(c2ncnc3c(-c4ccccc4)nsc23)CC1,EC50,[4],108 µM (active)
same,EC50,[6],9.83 µM (active)
O=C(CN1C(=O)/C(=C/c2ccccc2)SC1=S)NNC(=O)c1ccccc1O,EC50,[4],> 160 µM (inconclusive)
same,EC50,[6],> 38 µM (not active)
O=C1/C(=C/c2cccc(F)c2)SC(=S)N1NS(=O)(=O)c1ccccc1,IC50,Genome polyprotein,30.6 µM (active)
O=C(NNc1ccc(Cl)cc1)C1CCC1,EC50,[4],48.3 µM (active)
same,EC50,[6],> 38 µM (not active)
CCn1c(SCC(=O)N2CCN(S(=O)(=O)c3ccccc3)CC2)nnc1-c1cccs1,AC50,Cytochrome P450 2C19,22.4 µM (inconclusive)
same,AC50,Cytochrome P450 2D6,17.8 µM (inconclusive)
Cc1noc(C)c1C(=O)OCC(=O)NC(c1ccccc1)c1ccccc1,AC50,Cytochrome P450 2D6,3.16 µM (inconclusive)
O[C@@H](C1=C/C(=C\c2ccncc2)c2ccccc21)c1ccncc1,AC50,Cytochrome P450 2D6,1.58 µM (inconclusive)
Cc1cccc(N2CC(C(=O)OCC(=O)c3ccc(OC(=O)c4cccs4)cc3)CC2=O)c1C (stereo not given),AC50,[1],97.7 µM (active)
same,EC50,Protein RecA,25 µM (active)
CCOC(=O)c1nc(C)n(-c2ccc(Cl)cc2)n1,AC50,[1],> 380 µM (inactive)
same,EC50,Protein RecA,> 380 µM (inactive)
COc1ccccc1CN1CCCC2(CCN(C(=O)c3c(C)noc3C)CC2)C1,AC50,Cytochrome P450 2D6,12.6 µM (inconclusive)
same,AC50,Cytochrome P450 3A4,10 µM (inconclusive)
CCc1ccc(C2C(C#N)=C(N)Oc3[nH]nc(CC(=O)OC)c32)cc1 (stereo not given),AC50,[1],13.8 µM (active)
same,EC50,Protein RecA,8.36 µM (active)
O=S(=O)(O)c1cccc2cccc(Nc3ccccc3)c12,IC50,Genome polyprotein,> 100 µM (active)
COC(=O)N/N=C/c1ccc(-c2cc(Cl)cc(Cl)c2)o1,EC50,[4],> 150 µM (inactive)
same,CC50,[7],> 50 µM (active)
same,EC50,[6],5.04 µM (active)
CCn1c2ccccc2c2cc(/N=C3/SC(CC(=O)Nc4ccccc4)C(=O)N3C)ccc21 (stereo not given),AC50,Cytochrome P450 2D6,7.08 µM (inconclusive)
same,AC50,Cytochrome P450 1A2,3.16 µM (inconclusive)
CC1=NN(c2ccc(Cl)cc2)C(=O)C1,AC50,[1],2.74 µM (active)
same,EC50,Protein RecA,2.67 µM (active)
